One test relates to B. cinerea. Put plainly: Antifungal activity assay (fungal growth, OD600). The test is classed as cell-based, Botrytis cinerea. As to conditions: 24 h, 25 °C. As to the method: B. cinerea spores were harvested from sporulated plates with distilled water and filtered through a […] pore membrane to avoid mycelial contamination. 96-well plates containing 100 μL of PDB with 100 spores per well were used, and the corresponding analog concentrations were analyzed for antifungal activity. H2O2 (10 mM) was used as a positive control to induce fungal death. For this experiment, methanol concentrations used for lipopeptide treatment ranged from 2 to 6% for iturins, 0.08 to 0.5% for fengycins and 0.2 to 4% for surfactins. The highest methanol concentration used for each condition was added to the control. The plates were incubated for 24 h with agitation (150 rpm) at 25 °C. After incubation, the OD600 values of the inoculated plates were measured in a plate reader (FLUOstar Omega reader, BMG LabTech) to evaluate fungal growth within the treatments.

The test system of test [1] is B. velezensis UMAF6639. Put plainly: Lipopeptide analog bacterial toxicity (growth dynamics, OD600). The format is cell-based, Bacillus velezensis. As to conditions: LB, 28 °C, read every 20 min, triplicate; for toxicity to B. velezensis UMAF6639 (OD600 over 24 h), surfactin variants at the mixture concentration: each analog at 65.83 µM; for toxicity to B. velezensis UMAF6639 (OD600 over 24 h), surfactin variants at the mixture concentration / effect on B. velezensis UMAF6639 growth (OD600 over 24 h), surfactins at physiological concentration: Figure 6K-O; for effect on B. velezensis UMAF6639 growth (OD600 over 24 h), surfactins at physiological concentration: mix 65.83 µM, C12 3.67, C13 16.93, C14 20.49, C15 21.85, C16 4.11 µM; for effect on B. velezensis UMAF6639 growth (OD600 over 24 h), iturin variants at the higher (mixture) concentration: each analog at 7.35 µM; for effect on B. velezensis UMAF6639 growth (OD600 over 24 h), iturin variants at the higher (mixture) concentration / effect on B. velezensis UMAF6639 growth (OD600 over 24 h), iturins at physiological concentration: Figure 6A-E; for effect on B. velezensis UMAF6639 growth (OD600 over 24 h), iturins at physiological concentration: mix 7.35 µM, C13 1.27, C14 2.39, C15 0.76, C16 1.96, C17 0.93 µM. Here is the method:
To analyze the toxicity of the lipopeptide variants toward B. velezensis UMAF6639, the wells of 96-well plates with 200 μL of LB medium were inoculated with 5 μL of a bacterial suspension (OD600 = 1), and every analog was added at the desired concentration.
Methanol concentrations used for lipopeptide treatment in each condition ranged from 0.005 to 4.3%, and the maximum was used as a control to confirm that was not harmful for Bacillus growth. OD600 values were measured in a plate reader (FLUOstar Omega reader, BMG LabTech) in kinetic mode with temperature control (28 °C), with measurements taken every 20 min.

The subject of test [2] is B. velezensis UMAF6639. Put plainly: Bacterial counts (CFU) of treated cultures. The format is cell-based, Bacillus velezensis. As to conditions: analogue at its physiological concentration, sampled 14 h after treatment; compared with methanol control; Figure 7A.
Test [3] has as its system Fusarium oxysporum f. sp. radicis-lycopersici. The settings on record: antagonizing Fusarium oxysporum f. sp. radicis-lycopersici; cited from earlier work. The source says:
In another recent study, plipastatins, fengycin analogues produced by B. subtilis, were reported to interact with oil bodies (OBs) of the melon seed endosperm, accelerating lipid mobilization and resulting in plant growth promotion (PGP) and immunization.[12] […] Because fengycin B variants have the same fatty acid length, the amino acid at position 6 of the peptide moiety, which differs between fengycin A and B,[46] is important for t ...

For test [4], the system named is Melon seeds (Rochet Panal - Fitó). Put plainly: Promotion of radicle growth evaluation in melon seeds. The format is in vivo. The settings on record: seeds bathed 1 h, 5 d at 25 °C in the dark; each analog at mixture concentration (7.35 µM); Figure 5A bottom. As to the method:
Melon seeds (Rochet Panal - Fitó) were surface sterilized with 0.1% sodium hypochlorite and washed twice with distilled water. Seed treatment with the purified variants was performed by bathing the seeds for 1 h at room temperature. The analog concentrations were set to the physiological concentrations obtained from previous calibrations. In addition, a second concentration was assayed as if each analog was the only one produced to reach the same concentration as that of the mixture of each lipopeptide family (Table S3). Since each lipopeptide fraction was reconstituted in methanol, water-treated seeds with the highest concentration of methanol used for lipopeptide treatment were used as control. The methanol concentration ranged from 0.004 to 0.025% for iturins, 0.009 to 0.067% for fengycins and 0.018 to 0.050% for surfactins. The seeds were placed in Petri dishes with moist filter paper and maintained in growth chambers at 25 °C for 5 d under dark conditions. The radicle growth-promoting effects were analyzed on the basis of the radicle areas measured 5 days after seed treatment using Fiji software.[28]

For the substance “Glu-Leu/Ile-Leu-Val-Asp-Leu-Leu/Ile (lariat or depsi) [C12-surfactin, surfactin analogue with C12 fatty acid, surfactin Fraction A]”, the “antifungal activity (fungal growth, OD600), surfactins at physiological concentration” value in the test with B. cinerea (B. cinerea, PDB, mix 65.83 µM, C12 3.67, C13 16.93, C14 20.49, C15 21.85, C16 4.11 µM (Table S3), Figure 4C left) was “no significant antifungal activity at physiological concentrations, except for the C12 analog”. For the same substance, the “toxicity to B. velezensis UMAF6639 (OD600 over 24 h), surfactin variants at the mixture concentration” value in the test with B. velezensis UMAF6639 [1] is given as “most toxic”.

As for “Glu-Leu/Ile-Leu-Val-Asp-Leu-Leu/Ile (lariat or depsi) [C13-surfactin, surfactin analogue with C13 fatty acid, surfactin Fraction B]”, the “effect on B. velezensis UMAF6639 growth (OD600 over 24 h), surfactins at physiological concentration” value in the test with B. velezensis UMAF6639 [1] is “considerable increase in the OD values”. In the test with B. velezensis UMAF6639 [2], the “bacterial counts (CFU) of B. velezensis UMAF6639 cultures” value is on record as “increased bacterial counts”.

Turning to “Glu-Leu/Ile-Leu-Val-Asp-Leu-Leu/Ile (lariat or depsi) [C15-surfactin, surfactin analogue with C15 fatty acid, surfactin Fractions E, F and G]”, the “effect on B. velezensis UMAF6639 growth (OD600 over 24 h), surfactins at physiological concentration” value in the test on B. velezensis UMAF6639 [1] is on record as “delayed bacterial growth”.

As for “Glu-Leu/Ile-Leu-Val-Asp-Leu-Leu/Ile (lariat or depsi) [C16-surfactin, surfactin analogue with C16 fatty acid, surfactin Fraction H]”, the “antifungal activity (fungal growth, OD600), surfactin variants at increased concentration” value in the test on B. cinerea (each analog at mixture concentration (65.83 µM), B. cinerea, PDB, Figure 4C right) is “comparable to that of the positive control”. In the test with B. velezensis UMAF6639 [1], the “toxicity to B. velezensis UMAF6639 (OD600 over 24 h), surfactin variants at the mixture concentration” value is reported as “most toxic” and the “effect on B. velezensis UMAF6639 growth (OD600 over 24 h), surfactins at physiological concentration” value is given as “delayed bacterial growth”.

With “Glu-Orn-Tyr-Thr-Glu-Ala/Val-Pro-Gln-Thr-Ile (lariat or depsi) [C14-fengycin B, fengycin B variant with C14 fatty acid, fengycin Fraction B]”, the “antifungal activity (fungal growth, OD600), fengycin variants at the highest concentration tested” value with B. cinerea (each fraction at mixture concentration (25.60 µM), B. cinerea, PDB, Figure 4B right) was “weak antifungal activity”. Further, the “effect on B. velezensis UMAF6639 growth (OD600 over 24 h), fengycin fractions at the highest (mixture) concentration” value in the test with B. velezensis UMAF6639 [1] (each fraction at 25.60 µM, Figure 6F-J) is “more pronounced”. The “effect on B. velezensis UMAF6639 growth (OD600 over 24 h), fengycins at physiological (lower) concentration” value in the test on B. velezensis UMAF6639 [1] (mix 25.60 µM, fractions B 3.96, C 5.44, D 2.50, E 11.21, F 2.22 µM, Figure 6F-J) is “slightly delayed growth”.

As for “Glu-Orn-Tyr-Thr-Glu-Ala/Val-Pro-Gln-Thr-Ile (lariat or depsi) [fengycin A, fengycin variant with Ala at position 6; literature MIC comparison]”, the minimal inhibitory concentration entry in test [3] is on record as “notably greater than that of fengycin B”.

Take “Ser-Asn-Pro-Gln-Asn-Tyr-Asn (head to tail) [C13-iturin A, iturin A analogue with C13 fatty acid chain, iturin Fraction A, purified from B. velezensis UMAF6639]”: in test [4], the “melon seed radicle growth promotion (radicle area), iturin variants at the same concentration” value (from here on “melon seed radicle growth promotion”) is on record as “compromised root development”. In addition, in the test with B. velezensis UMAF6639 [1], the “effect on B. velezensis UMAF6639 growth (OD600 over 24 h), iturin variants at the higher (mixture) concentration” value is listed as “harmless to Bacillus cells” and the “effect on B. velezensis UMAF6639 growth (OD600 over 24 h), iturins at physiological concentration” value is reported as “harmless to Bacillus cells”.

Regarding “Ser-Asn-Pro-Gln-Asn-Tyr-Asn (head to tail) [C14-iturin A, iturin A analogue with C14 fatty acid chain, iturin Fraction B, purified from B. velezensis UMAF6639]”, in test [4], the “melon seed radicle growth promotion” value is “compromised root development”. For the same substance, in the test on B. velezensis UMAF6639 [1], the “effect on B. velezensis UMAF6639 growth (OD600 over 24 h), iturin variants at the higher (mixture) concentration” value is “bacterial growth was slightly delayed” and the “effect on B. velezensis UMAF6639 growth (OD600 over 24 h), iturins at physiological concentration” value was “no difference from the control”.

As to “Ser-Asn-Pro-Gln-Asn-Tyr-Asn (head to tail) [C15-iturin A, iturin A analogue with C15 fatty acid chain, iturin Fraction C, purified from B. velezensis UMAF6639]”, the “antifungal activity (fungal growth, OD600), iturins at physiological concentration” value in the test with B. cinerea (B. cinerea 100 spores/well in PDB, 150 rpm, mix 7.35 µM, C13 1.27, C14 2.39, C15 0.76, C16 1.96, C17 0.93 µM (Table S3), Figure 4A left) is listed as “failed to exhibit antifungal activity”. Also, in the test with B. cinerea (each variant at 7.35 μM, B. cinerea, PDB, Figure 4A right), the “antifungal activity (fungal growth, OD600), iturin variants at the concentration of the entire mixture” value is reported as “sole active analog”. Besides, the “melon seed radicle growth promotion” value in test [4] is given as “significantly promoted radicle growth”. Besides, in the test with B. velezensis UMAF6639 [1], the “effect on B. velezensis UMAF6639 growth (OD600 over 24 h), iturin variants at the higher (mixture) concentration” value is recorded as “decrease in the optical density, the values remained above those of the untreated control” and the “effect on B. velezensis UMAF6639 growth (OD600 over 24 h), iturins at physiological concentration” value is reported as “considerable increase in the OD600 value”. The “bacterial counts (CFU) of B. velezensis UMAF6639 cultures” value in the test with B. velezensis UMAF6639 [2] is recorded as “increased bacterial counts”.

As to “Ser-Asn-Pro-Gln-Asn-Tyr-Asn (head to tail) [C16-iturin A, iturin A analogue with C16 fatty acid chain, iturin Fraction D, purified from B. velezensis UMAF6639]”, in test [4], the “melon seed radicle growth promotion” value is given as “significantly promoted radicle growth”. In the test on B. velezensis UMAF6639 [1], the “effect on B. velezensis UMAF6639 growth (OD600 over 24 h), iturin variants at the higher (mixture) concentration” value is “bacterial growth was slightly delayed” and the “effect on B. velezensis UMAF6639 growth (OD600 over 24 h), iturins at physiological concentration” value is recorded as “no difference from the control”.

Regarding “Ser-Asn-Pro-Gln-Asn-Tyr-Asn (head to tail) [C17-iturin A, iturin A analogue with C17 fatty acid chain, iturin Fraction E, purified from B. velezensis UMAF6639]”, the “melon seed radicle growth promotion” value in test [4] is listed as “slightly reduced the root area”. For the same substance, the “effect on B. velezensis UMAF6639 growth (OD600 over 24 h), iturin variants at the higher (mixture) concentration” value in the test on B. velezensis UMAF6639 [1] was “completely arrested B. velezensis growth”.
